Laboratory results reported in patent US20240190824A1, “INHIBITORS OF TREK (TWIK RELATED K+ CHANNELS) CHANNEL FUNCTION” (ONO PHARMACEUTICAL CO., LTD., priority 2019, published 2024).
pIC50: −log10 of the molar value.

Target: human TREK-1 (Homo sapiens (Human), UniProt O95069)
Experiment: TREK-1 Thallium (Tl+) flux assay
Type: cell-based
Conditions: CHO-K1 cells stably expressing human TREK-1

Sequence of human TREK-1 (O95069 whole entry): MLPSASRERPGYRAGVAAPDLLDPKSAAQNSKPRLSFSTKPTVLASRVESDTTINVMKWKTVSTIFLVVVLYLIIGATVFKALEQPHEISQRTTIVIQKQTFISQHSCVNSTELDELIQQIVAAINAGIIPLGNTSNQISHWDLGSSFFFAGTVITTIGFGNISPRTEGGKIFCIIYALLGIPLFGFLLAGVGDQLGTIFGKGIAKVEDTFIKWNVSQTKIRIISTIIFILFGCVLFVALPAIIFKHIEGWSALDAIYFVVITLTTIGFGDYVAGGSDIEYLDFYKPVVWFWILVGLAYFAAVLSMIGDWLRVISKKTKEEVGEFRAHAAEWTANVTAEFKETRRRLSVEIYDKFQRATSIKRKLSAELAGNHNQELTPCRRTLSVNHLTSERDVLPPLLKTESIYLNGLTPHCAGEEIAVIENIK

SMILES	pIC50
Cc1cc(C#Cc2ccccc2)cnc1NC(=O)c1cc(NC(=O)[C@@H]2C[C@H]2C)ccc1Cl [Compound 36, 2-chloro-5-[[(1R,2R)-2-methylcyclopropanecarbonyl]amino]-N-[3-methyl-5-(2-phenylethynyl)-2-pyridyl]benzamide]	6.38
CC(C)(C)OC(=O)Nc1ccc(Cl)c(C(=O)Nc2ncc(C#Cc3ccccc3)cc2F)n1 [Compound 38, tert-butyl N-[5-chloro-6-[[3-fluoro-5-(2-phenylethynyl)-2-pyridyl]carbamoyl]-2-pyridyl]carbamate]	6.36
Cc1cc(C#Cc2cnccn2)cnc1NC(=O)c1cc(NC(=O)OC(C)(C)C)ccc1Cl [Compound 39, tert-butyl N-[4-chloro-3-[[3-methyl-5-(2-pyrazin-2-ylethynyl)-2-pyridyl]carbamoyl]phenyl]carbamate]	6.33
CC(C)(C)OC(=O)Nc1ccc(Cl)c(C(=O)Nc2c(F)cc(C#Cc3ccccc3)nc2F)c1 [Compound 40, tert-butyl N-[4-chloro-3-[[2,4-difluoro-6-(2-phenylethynyl)-3-pyridyl]carbamoyl]phenyl]carbamate]	6.33
Cc1cc(C#Cc2cccnc2)cnc1NC(=O)c1cc(NC(=O)OC(C)(C)C)ccc1Cl [Compound 41, tert-butyl N-[4-chloro-3-[[3-methyl-5-[2-(3-pyridyl)ethynyl]-2-pyridyl]carbamoyl]phenyl]carbamate]	6.28
Cc1cc(C#Cc2ccccc2F)cnc1NC(=O)c1cc(NC(=O)OC(C)(C)C)ccc1Cl [Compound 42, tert-butyl N-[4-chloro-3-[[5-[2-(2-fluorophenyl)ethynyl]-3-methyl-2-pyridyl]carbamoyl]phenyl]carbamate]	6.27
Cc1cc(C#Cc2ccccc2)cnc1NC(=O)c1nc(NC(=O)OC(C)(C)C)ccc1Cl [Compound 43, tert-butyl N-[5-chloro-6-[[3-methyl-5-(2-phenylethynyl)-2-pyridyl]carbamoyl]-2-pyridyl]carbamate]	6.26
Cc1cc(C#Cc2ccccc2)cnc1N1Cc2ccc(NC(=O)OC(C)(C)C)cc2C1=O [Compound 44, tert-butyl N-[2-[3-methyl-5-(2-phenylethynyl)-2-pyridyl]-3-oxo-isoindolin-5-yl]carbamate]	6.24
Cc1ccc(NC(=O)OC(C)(C)C)cc1C(=O)Nc1ncc(C#Cc2ccccc2)cc1C [Compound 46, tert-butyl N-[4-methyl-3-[[3-methyl-5-(2-phenylethynyl)-2-pyridyl]carbamoyl]phenyl]carbamate]	6.06
Cc1cc(C#Cc2ccccc2)nc(C)c1NC(=O)c1cc(NC(=O)OC(C)(C)C)ccc1Cl [Compound 48, tert-butyl N-[4-chloro-3-[[2,4-dimethyl-6-(2-phenylethynyl)-3-pyridyl]carbamoyl]phenyl]carbamate]	6.02
Cc1cc(C#Cc2cccc(F)c2)nc(C)c1NC(=O)c1cc(NC(=O)[C@H]2C[C@@H]2C)ccc1Cl [Compound 49, 2-chloro-N-[6-[2-(3-fluorophenyl)ethynyl]-2,4-dimethyl-3-pyridyl]-5-[[(1S,2S)-2-methylcyclopropanecarbonyl]amino] benzamide]	5.96
Cc1cc(C#Cc2ccccc2)cnc1NC(=O)c1cc(NC(=O)OC(C)(C)C)ccc1F [Compound 50, tert-butyl N-[4-fluoro-3-[[3-methyl-5-(2-phenylethynyl)-2-pyridyl]carbamoyl]phenyl]carbamate]	5.97
Cc1cc(C#Cc2ccccc2)cnc1NC(=O)c1cc(NC(=O)OC(C)(C)C)cnc1Cl [Compound 52, tert-butyl N-[6-chloro-5-[[3-methyl-5-(2-phenylethynyl)-2-pyridyl]carbamoyl]-3-pyridyl]carbamate]	5.66
Cc1cc(C#Cc2ccccc2)cnc1NC(=O)c1cc(C#N)ccc1Cl [Compound 53, 2-chloro-5-cyano-N-(3-methyl-5-(phenylethynyl)pyridin-2-yl)benzamide]	6.09
O=C(Nc1ncc(C#Cc2ccccc2)cc1F)c1cc(-c2noc(C3CCOC3)n2)ccc1Cl (centres unmarked) [Compound 54]	7.10
O=C(Nc1ncc(C#Cc2ccccc2)cc1F)c1cc(-c2cnn(C3CCOCC3)c2)ccc1Cl [Compound 55, 2-chloro-N-[3-fluoro-5-(2-phenylethynyl)-2-pyridyl]-5-(1-tetrahydropyran-4ylpyrazol-4-yl)benzamide]	7.00
O=C(Nc1ncc(C#Cc2ccccc2)cc1F)c1cc(-c2cnn(C3COC3)c2)ccc1Cl [Compound 56, 2-chloro-N-[3-fluoro-5-(2-phenylethynyl)-2-pyridyl]-5-[1-(oxetan-3-yl)pyrazol-4-yl]benzamide]	6.96
Cc1cc(C#Cc2ccccc2)cnc1NC(=O)c1cc(-c2nc(C3CC3)no2)ccc1Cl [Compound 57, 2-chloro-5-(3-cyclopropyl-1,2,4-oxadiazol-5-yl)-N-[3-methyl-5-(2-phenylethynyl)-2-pyridyl]benzamide]	6.89
Cc1cc(C#Cc2ccccc2)cnc1NC(=O)c1cc(-c2cnn(C3COC3)c2)ccc1Cl [Compound 58, 2-chloro-N-[3-methyl-5-(2-phenylethynyl)-2-pyridyl]-5-[1-(oxetan-3-yl)pyrazol-4-yl]benzamide]	6.89

SMILES	pIC50
Cn1cc(-c2ccc(Cl)c(C(=O)Nc3ncc(C#Cc4ccccc4)cc3F)c2)cn1 [Compound 59, 2-chloro-N-[3-fluoro-5-(2-phenylethynyl)-2-pyridyl]-5-(1-methylpyrazol-4-yl)benzamide]	6.89
Cc1cc(C#Cc2ccccc2)cnc1NC(=O)c1cc(C(=O)N2CC(C)(C)C2)ccc1Cl [Compound 60, 2-chloro-5-(3,3-dimethylazetidine-1-carbonyl)-N-[3-methyl-5-(2-phenylethynyl)-2-pyridyl]benzamide]	6.85
Cc1cc(C#Cc2ccccc2)cnc1NC(=O)c1cc(-c2ccnn2C)ccc1Cl [Compound 61, 2-chloro-N-[3-methyl-5-(2-phenylethynyl)-2-pyridyl]-5-(2-methylpyrazol-3-yl)benzamide]	6.80
Cc1cc(C#Cc2ccccc2)cnc1NC(=O)c1cc(-c2cnn(CCN3CCOCC3)c2)ccc1Cl [Compound 62, 2-chloro-N-[3-methyl-5-(2-phenylethynyl)-2-pyridyl]-5-[1-(2-morpholinoethyl)pyrazol-4-yl]benzamide]	6.77
Cc1noc(-c2ccc(Cl)c(C(=O)Nc3ncc(C#Cc4ccccc4)cc3C)c2)n1 [Compound 63, 2-chloro-5-(3-methyl-1,2,4-oxadiazol-5-yl)-N-[3-methyl-5-(2-phenylethynyl)-2-pyridyl]benzamide]	6.70
CCn1ccc(-c2ccc(Cl)c(C(=O)Nc3ncc(C#Cc4ccccc4)cc3C)c2)n1 [Compound 64, 2-chloro-5-(1-ethylpyrazol-3-yl)-N-[3-methyl-5-(2-phenylethynyl)-2-pyridyl]benzamide]	6.70
Cc1cc(C#Cc2ccccc2)cnc1NC(=O)c1cc(-c2cnn(C3CCOCC3)c2)ccc1Cl [Compound 65, 2-chloro-N-[3-methyl-5-(2-phenylethynyl)-2-pyridyl]-5-(1-tetrahydropyran-4-ylpyrazol-4-yl)benzamide]	6.70
Cc1cc(C#Cc2ccccc2)cnc1NC(=O)c1cc(-c2cnn(C3CCOC3)c2)ccc1Cl (centres unmarked) [Compound 66, 2-chloro-N-(3-methyl-5-(phenylethynyl)pyridin-2-yl)-5-(1-(tetrahydrofuran-3-yl)-1H-pyrazol-4-yl)benzamide]	6.66
Cc1nc(C)c(-c2ccc(Cl)c(C(=O)Nc3ncc(C#Cc4ccccc4)cc3F)c2)s1 [Compound 67, 2-chloro-5-(2,4-dimethylthiazol-5-yl)-N-[3-fluoro-5-(2-phenylethynyl)-2-pyridyl]benzamide]	6.68
Cc1nn(C)cc1-c1ccc(Cl)c(C(=O)Nc2ncc(C#Cc3ccccc3)cc2F)c1 [Compound 68, 2-chloro-5-(1,3-dimethylpyrazol-4-yl)-N-[3-fluoro-5-(2-phenylethynyl)-2-pyridyl]benzamide]	6.66
Cc1cc(C#Cc2ccccc2)cnc1NC(=O)c1cc(C(=O)N2CCCC2C)ccc1Cl (centres unmarked) [Compound 69, 2-chloro-N-[3-methyl-5-(2-phenylethynyl)-2-pyridyl]-5-(2-methylpyrrolidine-1-carbonyl)benzamide]	6.64
Cc1nc(C)c(-c2ccc(Cl)c(C(=O)Nc3ncc(C#Cc4ccccc4)cc3C)c2)s1 [Compound 70, 2-chloro-5-(2,4-dimethylthiazol-5-yl)-N-[3-methyl-5-(2-phenylethynyl)-2-pyridyl]benzamide]	6.59
Cc1cc(C#Cc2ccccc2)cnc1NC(=O)c1cc(C(=O)N2CC(O)C2)ccc1Cl [Compound 71, 2-chloro-5-(3-hydroxyazetidine-1-carbonyl)-N-[3-methyl-5-(2-phenylethynyl)-2-pyridyl]benzamide]	6.52
Cc1cc(C)n(C(=O)c2ccc(Cl)c(C(=O)Nc3ncc(C#Cc4ccccc4)cc3C)c2)n1 [Compound 72, 2-chloro-5-(3,5-dimethylpyrazole-1-carbonyl)-N-[3-methyl-5-(2-phenylethynyl)-2-pyridyl]benzamide]	6.44
Cc1cc(C#Cc2ccccc2)cnc1NC(=O)c1cc(C(=O)N2CC(F)C2)ccc1Cl [Compound 73, 2-chloro-5-(3-fluoroazetidine-1-carbonyl)-N-[3-methyl-5-(2-phenylethynyl)-2-pyridyl]benzamide]	6.41
Cc1cc(C#Cc2ccccc2)cnc1NC(=O)c1cc(-c2cn(C)nc2C)ccc1Cl [Compound 74, 2-chloro-5-(1,3-dimethylpyrazol-4-yl)-N-[3-methyl-5-(2-phenylethynyl)-2-pyridyl]benzamide]	6.39
Cc1ncc(-c2ccc(Cl)c(C(=O)Nc3ncc(C#Cc4ccccc4)cc3C)c2)s1 [Compound 75, 2-chloro-N-[3-methyl-5-(2-phenylethynyl)-2-pyridyl]-5-(2-methylthiazol-5-yl)benzamide]	6.35
Cc1cc(C#Cc2ccccc2)cnc1NC(=O)c1cc(-c2c(C)cnn2C)ccc1Cl [Compound 76, 2-chloro-5-(2,4-dimethylpyrazol-3-yl)-N-[3-methyl-5-(2-phenylethynyl)-2-pyridyl]benzamide]	6.35
Cc1cc(C#Cc2ccccc2)cnc1NC(=O)c1cc(-c2nnco2)ccc1Cl [Compound 77, 2-chloro-N-[3-methyl-5-(2-phenylethynyl)-2-pyridyl]-5-(1,3,4-oxadiazol-2-yl)benzamide]	6.33
